# In patent US20150057266A1 (AbbVie Inc., priority 2005, published 2015):
# Assay: intrinsic solubility (aqueous medium/lower pH)
# Assay type: physicochemical
smiles,measurement,value
Cc1cccc(Nc2ccccc2C(=O)O)c1C [mefanamic acid],intrinsic solubility,0.0423 µg/mL
